Reference: ChEMBL document CHEMBL5331103, “Discovery of novel 2-hydroxyl-4-benzyloxybenzyl aniline derivatives as potential multifunctional agents for the treatment of Parkinson's disease” (Eur J Med Chem, 2023)
Blank lines part the entries; values can stand above or below the molecule they belong to. The source made the active and inactive calls. No cut-off for these calls is given here.

Key:
[1] = molecular target: T1, Amine oxidase [flavin-containing] B (Homo sapiens, UniProt P27338)
T1 sequence (P27338 whole entry): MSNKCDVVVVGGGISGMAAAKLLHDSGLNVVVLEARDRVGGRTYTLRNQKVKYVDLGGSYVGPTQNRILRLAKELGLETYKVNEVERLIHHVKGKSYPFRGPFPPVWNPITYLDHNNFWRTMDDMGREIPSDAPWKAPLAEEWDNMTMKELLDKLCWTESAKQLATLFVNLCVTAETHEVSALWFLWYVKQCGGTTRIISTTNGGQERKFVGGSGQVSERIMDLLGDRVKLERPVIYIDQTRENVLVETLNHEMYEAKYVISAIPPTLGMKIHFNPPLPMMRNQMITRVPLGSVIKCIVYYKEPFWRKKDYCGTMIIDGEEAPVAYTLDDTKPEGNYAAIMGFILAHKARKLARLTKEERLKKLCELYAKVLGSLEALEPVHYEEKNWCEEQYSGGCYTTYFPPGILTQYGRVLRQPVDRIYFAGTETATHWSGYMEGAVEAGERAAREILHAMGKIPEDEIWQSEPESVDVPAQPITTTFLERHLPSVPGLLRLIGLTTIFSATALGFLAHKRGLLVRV
Description: Inhibition of MAO-B (unknown origin) using kynuramine as substrate preincubated for 30 mins followed by substrate addition and measured after 30 mins by fluorescence based analysis

[2] = molecular target: T2, Amine oxidase [flavin-containing] A (Homo sapiens, UniProt P21397); test: Inhibition of MAO-A (unknown origin) using kynuramine as substrate at 10 uM preincubated for 30 mins followed by substrate addition and measured after 30 mins by fluorescence based analysis relative to control; conditions: 0.5 h, time 60 min
T2 sequence (P21397 whole entry): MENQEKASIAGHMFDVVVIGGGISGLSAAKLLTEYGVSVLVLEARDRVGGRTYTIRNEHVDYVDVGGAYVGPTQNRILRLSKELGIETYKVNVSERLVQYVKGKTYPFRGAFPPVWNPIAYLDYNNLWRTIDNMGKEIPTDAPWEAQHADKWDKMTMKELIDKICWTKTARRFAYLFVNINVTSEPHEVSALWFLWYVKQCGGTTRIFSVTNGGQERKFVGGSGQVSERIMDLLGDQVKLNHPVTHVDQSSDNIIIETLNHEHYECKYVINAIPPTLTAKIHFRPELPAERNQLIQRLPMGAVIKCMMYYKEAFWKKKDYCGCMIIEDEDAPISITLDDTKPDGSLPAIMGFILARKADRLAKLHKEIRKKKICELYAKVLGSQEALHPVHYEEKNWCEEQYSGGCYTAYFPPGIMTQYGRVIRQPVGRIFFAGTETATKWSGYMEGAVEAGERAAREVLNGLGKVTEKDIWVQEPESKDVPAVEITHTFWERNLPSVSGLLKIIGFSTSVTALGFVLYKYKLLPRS

[3] = molecular target: T1, Amine oxidase [flavin-containing] B; test: Competitive inhibition of MAO-B (unknown origin) using kynuramine as substrate assessed as inhibition constant by Lineweaver-Burk plot analysis
[4] = molecular target: T1, Amine oxidase [flavin-containing] B; test: Competitive inhibition of MAO-B (unknown origin) using kynuramine as substrate assessed as […] at 0.007 to 0.028 uM by Lineweaver-Burk plot analysis; conditions: dose 0.007-0.028 µM
[5] = Metal chelating activity assessed as Cu2+-compound complex formation by measuring increase in absorbance incubated for 2 hrs in the presence of CuCl2 by UV-Vis spectra analysis
Mus musculus [6] = test: In vivo inhibition of MAO-B in MPTP-induced C57BL/6C parkinson's mouse model assessed as increase in DA level in corpus striatum at 53.5 mg/kg, IG preadministered with MPTP for 5 days followed by compound administration for 3 weeks and measured 1 hrs post last dose by HPLC-ECD method; format: functional, organism-based
BV-2 [7] = test: Cytotoxicity against mouse BV-2 cells assessed as reduction in cell viability upto 10 uM incubated for 30 mins by MTT assay; format: toxicity, cell-based; conditions: bv-2, 0.5 h
BV-2 [8] = test: Anti-neuroinflammatory activity in mouse BV-2 cells assessed as inhibition of LPS-induced NO production at 2.5 uM preincubated for 30 mins followed by LPS stimulation and measured after 24 hrs by Griess reagent based assay relative to control; format: functional; conditions: time 24.5 hrs
[9] = Metal chelating activity assessed as Fe3+-compound complex formation by measuring increase in absorbance incubated for 2 hrs in the presence of FeCl3 by UV-Vis spectra analysis
BV-2 [10] = test: Inhibition of LPS-induced NFkappaB activation in mouse BV-2 cells assessed as reduction in IkappaBalpha phosphorylation at 1 to 10 uM preincubated for 30 mins followed by LPS-stimulation and measured after 16 hrs by Western blot analysis; format: cell-based; conditions: dose 1-10 µM, time 16.5 hrs
PC-12 [11] = test: Neuroprotective activity against H2O2-induced cell damage in rat PC-12 cells assessed as increase in cell viability at 10 uM preincubated for 2 hrs followed by H2O2 addition and measured after 24 hrs by MTT assay (reference value: 50.3%); format: functional; conditions: time 26 hrs
[12] = Permeability of the compound in porcine brain incubated for 18 hrs by PAMPA-BBB assay; format: ADME, Sus scrofa; conditions: pig, read-out: permeability
Mus musculus [13] = test: Anti-parkinson's disease activity in MPTP-induced C57BL/6C mouse model assessed as reduction in time required to turn the head to 180 degree at 53.5 mg/kg, IG preadministered with MPTP for 5 days followed by compound administration for 3 weeks and measured 1 hrs post last dose by pole test; format: functional, organism-based
[14] = Metal chelating activity assessed as Fe2+-compound complex formation by measuring increase in absorbance incubated for 2 hrs in the presence of FeSO4 by UV-Vis spectra analysis
[15] = Metal chelating activity assessed as Al3+-compound complex formation by measuring increase in absorbance incubated for 2 hrs in the presence of AlCl3 by UV-Vis spectra analysis
Mus musculus [16] = test: Anti-parkinson's disease activity in MPTP-induced C57BL/6C mouse model assessed as decrease in MDA level in corpus striatum at 53.5 mg/kg, IG preadministered with MPTP for 5 days followed by compound administration for 3 weeks and measured 1 hrs post last dose by HPLC-ECD method; format: functional, organism-based
BV-2 [17] = test: Inhibition of LPS-induced ROS production in mouse BV-2 cells at 10 uM preincubated for 30 mins followed by LPS-stimulation and measured after 30 mins by DCFH-DA based fluorescence microplate reader analysis relative to control; format: functional; conditions: BV-2, 1 h, time 60 min
PC-12 [18] = test: Neuroprotective activity against H2O2-induced cell damage in rat PC-12 cells assessed as increase in cell viability at 2.5 uM preincubated for 2 hrs followed by H2O2 addition and measured after 24 hrs by MTT assay (reference value: 50.3%); format: functional; conditions: time 26 hrs
BV-2 [19] = test: Inhibition of LPS-induced ROS production in mouse BV-2 cells at 2.5 uM preincubated for 30 mins followed by LPS-stimulation and measured after 30 mins by DCFH-DA based fluorescence microplate reader analysis relative to control; format: functional; conditions: BV-2, 1 h, time 60 min
[20] = Metal chelating activity assessed as Zn2+-compound complex formation by measuring increase in absorbance incubated for 2 hrs in the presence of ZnCl2 by UV-Vis spectra analysis
Mus musculus [21] = test: Anti-parkinson's disease activity in MPTP-induced C57BL/6C mouse model assessed as increase in traction test score at 53.5 mg/kg, IG preadministered with MPTP for 5 days followed by compound administration for 3 weeks and measured 1 hrs post last dose by traction test; format: functional, organism-based
PC-12 [22] = test: Cytotoxicity against rat PC-12 cells assessed as reduction in cell viability upto 50 uM incubated for 2 hrs by MTT assay; format: toxicity, cell-based; conditions: pc-12, 2 h
BV-2 [23] = test: Anti-neuroinflammatory activity in mouse BV-2 cells assessed as inhibition of LPS-induced NO production at 10 uM preincubated for 30 mins followed by LPS stimulation and measured after 24 hrs by Griess reagent based assay relative to control; format: functional; conditions: time 24.5 hrs
BV-2 [24] = test: Anti-neuroinflammatory activity in mouse BV-2 cells assessed as inhibition of LPS-induced TNF-alpha production preincubated for 30 mins followed by LPS stimulation and measured after 24 hrs by ELISA analysis; format: functional, cell-based; conditions: dose 0.5-10 µM, time 24.5 hrs
BV-2 [25] = test: Anti-neuroinflammatory activity in mouse BV-2 cells assessed as inhibition of LPS-induced NO production at 0.5 uM preincubated for 30 mins followed by LPS stimulation and measured after 24 hrs by Griess reagent based assay relative to control; format: functional; conditions: time 24.5 hrs
Mus musculus [26] = test: Anti-parkinson's disease activity in MPTP-induced C57BL/6C mouse model assessed as reduction in total time required to reach the bottom of pole at 53.5 mg/kg, IG preadministered with MPTP for 5 days followed by compound administration for 3 weeks and measured 1 hrs post last dose by pole test; format: functional, organism-based
BV-2 [27] = test: Inhibition of LPS-induced NFkappaB activation in mouse BV-2 cells assessed as inhibition of p65 translocation to nucleus at 1 to 10 uM preincubated for 30 mins followed by LPS-stimulation and measured after 16 hrs by Western blot analysis; format: cell-based; conditions: dose 1-10 µM, time 16.5 hrs
BV-2 [28] = test: Anti-neuroinflammatory activity in mouse BV-2 cells assessed as inhibition of LPS-induced TNF-alpha production at 10 uM preincubated for 30 mins followed by LPS stimulation and measured after 24 hrs by ELISA analysis relative to control; format: functional; conditions: time 24.5 hrs
PC-12 [29] = test: Neuroprotective activity against H2O2-induced cell damage in rat PC-12 cells assessed as increase in cell viability at 50 uM preincubated for 2 hrs followed by H2O2 addition and measured after 24 hrs by MTT assay (reference value: 50.3%); format: functional; conditions: time 26 hrs
Mus musculus [30] = test: Anti-parkinson's disease activity in MPTP-induced C57BL/6C mouse model assessed as reduction in beam walking test time at 53.5 mg/kg, IG preadministered with MPTP for 5 days followed by compound administration for 3 weeks and measured 1 hrs post last dose by beam-walking test; format: functional, organism-based
[31] = Metal chelating activity assessed as Fe2+-compound complex formation by measuring increase in absorbance incubated for 2 hrs in the presence of FeSO4 at 30 to 900 uM by UV-Vis spectra analysis
[32] = molecular target: T1, Amine oxidase [flavin-containing] B; test: Competitive inhibition of MAO-B (unknown origin) using kynuramine as substrate assessed as increase in Km at 0.007 to 0.028 uM by Lineweaver-Burk plot analysis; conditions: dose 0.007-0.028 µM
[33] = Metal chelating activity assessed as Fe2+-compound complex formation by measuring red shift incubated for 2 hrs in the presence of FeSO4 by UV-Vis spectra analysis

Compound: O=[N+]([O-])c1ccc(COc2ccc(CNc3ccccc3)c(O)c2)cc1
- IC50 [1]: 85 nM
- inhibition at 10 µM [2]: 30.6%

Compound: Oc1cc(OCc2cccc(F)c2)ccc1CNc1ccccc1
- IC50 [1]: 95 nM
- inhibition at 10 µM [2]: 11.8%

Compound: Oc1cc(OCc2ccc(F)cc2)ccc1CNc1ccccc1
- Ki [3]: 18 nM
- inhibition (INH) [4]: Active
- Activity [5]: Active
- inhibition (Mus musculus [6]): Active
- Activity (BV-2 [7]): Non-Toxic
- inhibition at 2.5 µM (BV-2 [8]): 28%
- Activity [9]: Active
- inhibition (BV-2 [10]): Active
- Activity (PC-12 [11]): 69.6%
- Papp at 18 h [12]: 8.62 ×10⁻⁶ cm/s
- Activity (Mus musculus [13]): Active
- Activity [14]: Active
- Activity [15]: Active
- Activity (Mus musculus [16]): Active
- IC50 [1]: 14 nM
- inhibition at 10 µM (BV-2 [17]): 99%
- inhibition at 10 µM [2]: 43.7%
- Activity (PC-12 [18]): 59.8%
- inhibition at 2.5 µM (BV-2 [19]): 21.2%
- Activity [20]: Active
- Activity (Mus musculus [21]): Active
- Activity (PC-12 [22]): Non-Toxic
- inhibition at 10 µM (BV-2 [23]): 76.1%
- Activity (BV-2 [24]): Dose-Dependent Effect
- inhibition at 0.5 µM (BV-2 [25]): 13.5%
- Activity (Mus musculus [26]): Active
- inhibition (BV-2 [27]): Active
- inhibition at 10 µM (BV-2 [28]): 63.9%
- Activity (PC-12 [29]): 77.2%
- Activity (Mus musculus [30]): Active
- Activity [31]: Active
- inhibition (INH) [32]: Active
- Activity [33]: Active

Compound: Oc1cc(OCc2ccccc2)ccc1CNc1ccccc1
- IC50 [1]: 481 nM
- inhibition at 10 µM [2]: 14.7%

Compound: Oc1cc(OCc2ccc(Cl)cc2)ccc1CNc1ccccc1
- IC50 [1]: 58 nM
- inhibition at 10 µM [2]: 51.2%

Compound: Oc1cccc(NCc2ccc(OCc3ccc(F)cc3)cc2O)c1
- IC50 [1]: 67 nM
- inhibition at 10 µM [2]: 35.5%

Compound: Oc1cc(OCc2ccccc2Cl)ccc1CNc1ccccc1
- IC50 [1]: 423 nM
- inhibition at 10 µM [2]: 10.3%

Other lines, results leading:

- IC50 [1]: 33 nM
- inhibition at 10 µM [2]: 49.2%
Compound: Oc1cc(OCc2ccc(F)c(Cl)c2)ccc1CNc1ccccc1

- IC50 [1]: 35 nM
- inhibition at 10 µM [2]: 38.3%
Compound: Oc1cc(OCc2ccc(F)cc2)ccc1CNc1ccccc1F

- IC50 [1]: 435 nM
- inhibition at 10 µM [2]: < 5%
Compound: CC(C)(C)c1ccc(COc2ccc(CNc3ccccc3)c(O)c2)cc1
